Experimental data reported in US10293001B2, “Compositions and methods for restoring or rejuvenating stem/progenitor cell function” (University of Pittsburgh—Of the Commonwealth System of …, priority 2012, dated 2019).

Legend:
Ercc1^−/− MEFs = assay: Reversal of senescence (SA-β-gal) of Ercc1−/− MEFs; type: cell-based, mouse; conditions: within 24 hours of treatment
aged WT MDSPCs = assay: Myogenic fusion of aged MDSPCs with IKKβ inhibition; type: cell-based, mouse; design: dose or concentration left out as unconfirmed; conditions: under fusion conditions
Source text: To determine further whether the NF-κB signaling pathway plays a role in driving age-related stem cell dysfunction, whether pharmacologic inhibition of IKK-β would restore the myogenic potential of aged WT MDSPCs was examined. […] MDSPCs were isolated from 30 month old p65^+/− and 24 month old WT mice and compared the myogenic potential of 30 month old p65^+/− MDSPCs in vitro to naturally aged WT MDSPCs. The results confirmed that MDSPCs from p65^+/− aged mice (30 month) were more myogenic than MDSPCs from 24 month old WT mice.

Ercc1^−/Δ mice = assay: Chronic treatment with mitochondrial radical scavenger in progeroid mice; type: in vivo, mouse

## O=C(c1ccc(Nc2nccc(-c3cc4ccccc4s3)n2)cc1)N1CCC(N2CCCC2)CC1 [IKKiVII]
Ercc1^−/− MEFs
  reversing senescence of Ercc1−/− MEFs (>60% of cells SA-β gal+): could be reversed

## NC(=O)Nc1sc(-c2ccc(F)cc2)cc1C(N)=O [IKKβ inhibitor IV]
Aged WT MDSPCs
  fusion index of aged MDSPCs: significantly increased

## CC(C)C[C@@H](/C=C/[C@H](Cc1ccccc1)C(=O)N1CCC[C@H]1C(=O)N[C@H](C(=O)N[C@@H](CCCNC(=O)OCc1ccccc1)C(=O)NC1CC(C)(C)N([O])C(C)(C)C1)C(C)C)NC(=O)OC(C)(C)C [XJB-5-131]
Ercc1^−/Δ mice
  onset of aging-related degenerative changes: delay the onset
